Measurements from ChEMBL document CHEMBL2384969, “Discovery and Optimization of Potent GPR40 Full Agonists Containing Tricyclic Spirocycles” (ACS Med Chem Lett, 2013).
Calls of active or inactive are those of the source. The rule behind the calls is not given here.

Experiments:
[1] = target: T1, Free fatty acid receptor 1 (Homo sapiens, UniProt O14842); assay: Agonist activity at human FFA1 receptor expressed in CHO cell membranes after 4 hrs by aequorin bioluminescence assay relative to AM-1638; type: cell-based
T1 sequence (O14842 whole entry): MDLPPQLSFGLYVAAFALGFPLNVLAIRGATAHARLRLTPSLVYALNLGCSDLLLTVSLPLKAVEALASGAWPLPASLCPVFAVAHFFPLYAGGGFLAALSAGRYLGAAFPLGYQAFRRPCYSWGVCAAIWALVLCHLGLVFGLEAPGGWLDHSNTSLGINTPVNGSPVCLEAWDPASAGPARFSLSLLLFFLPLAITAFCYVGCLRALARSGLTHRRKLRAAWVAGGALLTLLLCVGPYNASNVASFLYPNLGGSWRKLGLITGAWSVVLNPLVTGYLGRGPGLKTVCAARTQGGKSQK

[2] = target: T1, Free fatty acid receptor 1; assay: Agonist activity at human FFA1 receptor expressed in CHO cell membranes after 4 hrs by aequorin bioluminescence assay; type: cell-based
[3] = Oral bioavailability in Sprague-Dawley rat at 2 mg/kg; type: ADME, organism-based; details: in vivo
[4] = Volume of distribution at steady state in cynomolgus monkey at 0.5 mg/kg, iv; type: ADME, organism-based, Macaca fascicularis; design: dose 0.5 mg/kg, route intravenous; details: in vivo, read-out: Vdss
[5] = Volume of distribution at steady state in Sprague-Dawley rat at 0.5 mg/kg, iv; type: ADME, organism-based; design: dose 0.5 mg/kg, route intravenous; details: in vivo, read-out: Vdss
[6] = target: Kappa-type opioid receptor (Rattus norvegicus) (UniProt P34975); assay: Inhibition of rat kappa opioid receptor at 10 uM relative to control
Chain of Kappa-type opioid receptor (Rattus norvegicus) (P34975 whole entry): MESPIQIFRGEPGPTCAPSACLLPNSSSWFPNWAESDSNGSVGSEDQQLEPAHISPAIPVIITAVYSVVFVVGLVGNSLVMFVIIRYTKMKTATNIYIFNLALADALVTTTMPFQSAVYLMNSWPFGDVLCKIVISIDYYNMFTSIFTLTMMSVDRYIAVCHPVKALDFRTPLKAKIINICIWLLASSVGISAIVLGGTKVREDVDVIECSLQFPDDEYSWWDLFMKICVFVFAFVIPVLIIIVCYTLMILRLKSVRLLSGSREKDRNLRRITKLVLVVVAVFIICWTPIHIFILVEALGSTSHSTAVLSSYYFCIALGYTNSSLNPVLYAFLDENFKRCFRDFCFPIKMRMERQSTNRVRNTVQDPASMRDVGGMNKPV

[7] = target: D(1A) dopamine receptor (Homo sapiens) (UniProt P21728); assay: Inhibition of human dopamine D1 receptor at 10 uM relative to control
Chain of D(1A) dopamine receptor (Homo sapiens) (P21728 whole entry): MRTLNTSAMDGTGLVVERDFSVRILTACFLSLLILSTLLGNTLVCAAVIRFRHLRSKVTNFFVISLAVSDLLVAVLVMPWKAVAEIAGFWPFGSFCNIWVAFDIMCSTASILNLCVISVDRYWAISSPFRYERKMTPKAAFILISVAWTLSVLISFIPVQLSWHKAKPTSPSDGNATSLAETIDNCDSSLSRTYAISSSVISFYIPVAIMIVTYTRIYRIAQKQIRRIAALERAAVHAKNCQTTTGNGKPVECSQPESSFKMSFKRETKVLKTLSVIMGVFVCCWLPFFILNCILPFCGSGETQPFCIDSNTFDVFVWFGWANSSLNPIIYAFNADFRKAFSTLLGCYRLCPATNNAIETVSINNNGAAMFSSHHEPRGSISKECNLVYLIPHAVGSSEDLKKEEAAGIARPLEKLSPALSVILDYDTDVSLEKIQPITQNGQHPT

[8] = target: Histamine H4 receptor (Homo sapiens) (UniProt Q9H3N8); assay: Inhibition of human histamine H4 receptor at 10 uM relative to control
Chain of Histamine H4 receptor (Homo sapiens) (Q9H3N8 whole entry): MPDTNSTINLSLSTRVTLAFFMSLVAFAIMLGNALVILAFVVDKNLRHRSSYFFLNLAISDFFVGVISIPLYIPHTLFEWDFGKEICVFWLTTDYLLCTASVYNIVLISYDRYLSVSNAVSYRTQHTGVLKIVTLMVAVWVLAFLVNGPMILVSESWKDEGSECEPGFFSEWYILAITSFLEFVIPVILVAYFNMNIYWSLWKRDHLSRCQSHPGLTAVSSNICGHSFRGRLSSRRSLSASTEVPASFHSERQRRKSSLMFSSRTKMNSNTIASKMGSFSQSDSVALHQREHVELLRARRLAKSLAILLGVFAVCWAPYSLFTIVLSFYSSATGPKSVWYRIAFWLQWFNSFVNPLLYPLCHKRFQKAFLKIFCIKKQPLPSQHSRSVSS

[9] = target: T2, Gastrin/cholecystokinin type B receptor (Homo sapiens) (UniProt P32239); assay: Inhibition of human CCK2 receptor at 10 uM relative to control
T2 sequence (whole entry): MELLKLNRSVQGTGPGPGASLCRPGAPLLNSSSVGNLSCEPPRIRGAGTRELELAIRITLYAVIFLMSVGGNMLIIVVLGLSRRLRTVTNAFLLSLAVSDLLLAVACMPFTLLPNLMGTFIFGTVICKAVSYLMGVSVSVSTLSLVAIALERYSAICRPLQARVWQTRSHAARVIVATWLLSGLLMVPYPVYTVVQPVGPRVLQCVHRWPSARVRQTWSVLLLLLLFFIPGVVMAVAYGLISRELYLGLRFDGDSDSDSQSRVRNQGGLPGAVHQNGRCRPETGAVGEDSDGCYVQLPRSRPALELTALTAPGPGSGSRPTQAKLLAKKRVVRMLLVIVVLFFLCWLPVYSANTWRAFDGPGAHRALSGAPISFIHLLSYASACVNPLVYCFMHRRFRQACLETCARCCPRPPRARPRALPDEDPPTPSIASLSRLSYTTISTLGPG

[10] = target: Sodium-dependent noradrenaline transporter (Homo sapiens) (UniProt P23975); assay: Inhibition of human norepinephrine transporter at 10 uM relative to control
Chain of Sodium-dependent noradrenaline transporter (Homo sapiens) (P23975 whole entry): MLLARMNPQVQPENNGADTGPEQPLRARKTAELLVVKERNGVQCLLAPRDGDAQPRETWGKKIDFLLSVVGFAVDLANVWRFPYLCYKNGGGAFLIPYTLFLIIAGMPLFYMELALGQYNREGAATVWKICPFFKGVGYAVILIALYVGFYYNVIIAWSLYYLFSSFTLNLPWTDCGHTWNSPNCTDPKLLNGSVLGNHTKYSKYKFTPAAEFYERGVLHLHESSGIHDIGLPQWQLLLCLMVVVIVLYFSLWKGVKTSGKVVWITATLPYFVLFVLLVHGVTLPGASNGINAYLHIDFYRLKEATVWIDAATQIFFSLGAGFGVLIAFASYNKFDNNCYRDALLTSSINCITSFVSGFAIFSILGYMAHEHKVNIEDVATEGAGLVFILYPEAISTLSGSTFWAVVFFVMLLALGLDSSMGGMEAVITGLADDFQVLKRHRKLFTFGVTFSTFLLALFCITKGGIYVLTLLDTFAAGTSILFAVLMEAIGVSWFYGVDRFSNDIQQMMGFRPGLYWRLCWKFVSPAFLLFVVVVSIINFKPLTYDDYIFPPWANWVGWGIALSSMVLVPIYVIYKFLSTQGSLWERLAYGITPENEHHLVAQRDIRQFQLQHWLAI

[11] = target: T3, Thyrotropin-releasing hormone receptor (Homo sapiens) (UniProt P34981); assay: Inhibition of human TRH1 receptor at 10 uM relative to control
T3 sequence (whole entry): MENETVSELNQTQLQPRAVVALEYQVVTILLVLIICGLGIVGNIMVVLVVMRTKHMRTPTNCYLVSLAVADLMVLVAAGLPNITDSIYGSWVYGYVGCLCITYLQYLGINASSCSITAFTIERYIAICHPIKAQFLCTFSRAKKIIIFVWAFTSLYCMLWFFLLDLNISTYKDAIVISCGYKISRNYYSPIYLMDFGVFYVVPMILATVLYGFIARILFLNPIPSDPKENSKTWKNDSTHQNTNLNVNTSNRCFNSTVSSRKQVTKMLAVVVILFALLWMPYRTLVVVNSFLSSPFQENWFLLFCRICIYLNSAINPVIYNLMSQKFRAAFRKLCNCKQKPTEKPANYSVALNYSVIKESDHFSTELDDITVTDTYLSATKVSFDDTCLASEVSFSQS

[12] = target: T4, Adenosine receptor A1 (Homo sapiens) (UniProt P30542); assay: Inhibition of human adenosine A1 receptor at 10 uM relative to control
T4 sequence (whole entry): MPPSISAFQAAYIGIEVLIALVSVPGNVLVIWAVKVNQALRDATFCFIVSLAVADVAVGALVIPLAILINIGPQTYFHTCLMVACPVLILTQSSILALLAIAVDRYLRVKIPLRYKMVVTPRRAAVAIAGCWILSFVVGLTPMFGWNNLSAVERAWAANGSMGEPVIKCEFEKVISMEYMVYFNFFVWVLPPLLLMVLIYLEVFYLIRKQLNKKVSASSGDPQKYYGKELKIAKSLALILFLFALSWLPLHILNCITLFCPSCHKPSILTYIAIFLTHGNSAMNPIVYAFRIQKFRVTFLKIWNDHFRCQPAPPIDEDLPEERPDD

Mus musculus [13] = assay: Antidiabetic activity in high-fat diet fed streptozotocin-induced C57BL/6J mouse at 60 mg/kg, po by oral glucose tolerance test; type: functional, organism-based; design: dose 60 mg/kg
[14] = Oral bioavailability in cynomolgus monkey at 2 mg/kg; type: ADME, organism-based, Macaca fascicularis; details: in vivo
[15] = Half life in cynomolgus monkey at 0.5 mg/kg, iv; type: ADME, organism-based, Macaca fascicularis; design: dose 0.5 mg/kg, route intravenous; details: in vivo
[16] = Half life in Sprague-Dawley rat at 0.5 mg/kg, iv; type: ADME, organism-based; design: dose 0.5 mg/kg, route intravenous; details: in vivo
[17] = Clearance in cynomolgus monkey at 0.5 mg/kg, iv; type: ADME, organism-based, Macaca fascicularis; design: dose 0.5 mg/kg, route intravenous; details: in vivo
[18] = Clearance in Sprague-Dawley rat at 0.5 mg/kg, iv; type: ADME, organism-based; design: dose 0.5 mg/kg, route intravenous; details: in vivo
[19] = target: T1, Free fatty acid receptor 1; assay: Positive cooperativite binding to human FFA1 receptor expressed in CHO cell membranes assessed as enhancement of specific binding of [3H]AMG 837 by reciprocal competition assay
Mus musculus [20] = assay: Antidiabetic activity in high-fat diet fed streptozotocin-induced C57BL/6J mouse assessed as increase in insulin secretion at 30 mg/kg, po by oral glucose tolerance test; type: functional, organism-based; design: dose 30 mg/kg
Mus musculus [21] = assay: Antidiabetic activity in high-fat diet fed streptozotocin-induced C57BL/6J mouse assessed as improvement in glucose AUC at 30 mg/kg, po by oral glucose tolerance test relative to control; type: functional
Pancreatic islet [22] = assay: Potentiation of glucose-stimulated insulin secretion in human pancreatic islets at 0.01 uM to 10 uM; type: functional
Pancreatic islet [23] = assay: Potentiation of glucose-stimulated insulin secretion in mouse pancreatic islets at 0.01 uM to 10 uM; type: functional
[24] = target: Free fatty acid receptor 1 (Rattus norvegicus) (UniProt Q8K3T4); assay: Agonist activity at FFA1 receptor in Sprague-Dawley rat fetal intestinal cells assessed as stimulation of GIP secretion after 1 hr by ELISA relative to AM-1638
Chain of Free fatty acid receptor 1 (Rattus norvegicus) (Q8K3T4 whole entry): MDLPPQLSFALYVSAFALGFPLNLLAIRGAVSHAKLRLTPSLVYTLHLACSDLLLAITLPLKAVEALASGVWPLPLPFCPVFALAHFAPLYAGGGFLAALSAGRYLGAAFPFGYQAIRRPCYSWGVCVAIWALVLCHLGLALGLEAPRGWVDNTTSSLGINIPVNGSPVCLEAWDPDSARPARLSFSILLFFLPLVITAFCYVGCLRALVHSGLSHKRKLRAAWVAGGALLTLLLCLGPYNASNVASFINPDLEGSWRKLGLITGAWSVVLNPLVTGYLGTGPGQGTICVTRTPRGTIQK

[25] = target: Free fatty acid receptor 1 (Rattus norvegicus) (UniProt Q8K3T4); assay: Agonist activity at FFA1 receptor in Sprague-Dawley rat fetal intestinal cells assessed as stimulation of GIP secretion after 1 hr by ELISA
[26] = target: Free fatty acid receptor 1 (Rattus norvegicus) (UniProt Q8K3T4); assay: Agonist activity at FFA1 receptor in Sprague-Dawley rat fetal intestinal cells assessed as stimulation of GLP1 secretion after 1 hr by ELISA relative to AM-1638
[27] = target: Free fatty acid receptor 1 (Rattus norvegicus) (UniProt Q8K3T4); assay: Agonist activity at FFA1 receptor in Sprague-Dawley rat fetal intestinal cells assessed as stimulation of GLP1 secretion after 1 hr by ELISA

COc1ccc(F)c(-c2ccc(COc3ccc4c(c3)[C@@H]3[C@H](C4)[C@@H]3C(=O)O)cc2C2=CCCC2(C)C)c1
Emax [1]: 10% | EC50 [2]: > 30 µM

COc1ccc(F)c(-c2ccc(COc3ccc4c(c3)[C@]3(CCC4)C[C@H]3C(=O)O)cc2[C@@H]2CCCC2(C)C)c1
Emax [1]: 101% | EC50 [2]: 0.092 µM

COc1ccc(F)c(-c2ccc(COc3ccc4c(c3)[C@]3(CC4)C[C@@H]3C(=O)O)cc2C2=CCCC2(C)C)c1
Emax [1]: 5% | EC50 [2]: > 30 µM

COc1ccc(F)c(-c2ccc(COc3ccc4c(c3)[C@@]3(CC4)C[C@@H]3C(=O)O)cc2C2=CCCC2(C)C)c1
Emax [1]: 12% | EC50 [2]: > 30 µM

COc1ccc(F)c(-c2ccc(COc3cccc([C@@H](CC(=O)O)C4CC4)c3)cc2C2=CCCC2(C)C)c1
bioavailability [3]: 15% | Vd [4]: 2 L/kg | Vd [5]: 1.1 L/kg | inhibition [6]: > 70% | inhibition [7]: > 70% | inhibition [8]: > 70% | inhibition [9]: > 70% | inhibition [10]: > 70% | inhibition [11]: > 70% | inhibition [12]: > 70% | Activity (Mus musculus [13]): Active

COc1ccc(F)c(-c2ccc(COc3ccc4c(c3)[C@@H]3[C@H](C4)[C@H]3C(=O)O)cc2C2=CCCC2(C)C)c1
Emax [1]: 15% | EC50 [2]: > 30 µM

COc1ccc(F)c(-c2ccc(COc3ccc4c(c3)[C@]3(CC4)CC[C@H]3C(=O)O)cc2C2=CCCC2(C)C)c1
Emax [1]: 92% | EC50 [2]: 0.52 µM

COc1ccc(F)c(-c2ccc(COc3ccc4c(c3)[C@H]3[C@@H](C4)[C@@H]3C(=O)O)cc2C2=CCCC2(C)C)c1
Emax [1]: 99% | EC50 [2]: 1.42 µM

COc1ccc(F)c(-c2ccc(COc3ccc4c(c3)[C@]3(CCC4)CC[C@H]3C(=O)O)cc2C2=CCCC2(C)C)c1
Emax [1]: 83% | EC50 [2]: 0.35 µM

COc1ccc(F)c(-c2ccc(COc3ccc4c(c3)[C@]3(CC4)C[C@H]3C(=O)O)cc2C2=CCCC2(C)C)c1
Emax [1]: 100% | EC50 [2]: 0.18 µM

COc1ccc(F)c(-c2ccc(COc3ccc4c(c3)[C@]3(CC4)C[C@H]3C(=O)O)cc2[C@H]2CCCC2(C)C)c1
Emax [1]: 104% | EC50 [2]: 0.212 µM

COc1ccc(F)c(-c2ccc(COc3ccc4c(c3)[C@]3(CCC4)C[C@H]3C(=O)O)cc2C2=CCCC2(C)C)c1
Emax [1]: 98% | EC50 [2]: 0.15 µM

COc1ccc(F)c(-c2ccc(COc3ccc4c(c3)[C@H]3[C@@H](C4)[C@H]3C(=O)O)cc2C2=CCCC2(C)C)c1
Emax [1]: 17% | EC50 [2]: > 30 µM

COc1ccc(F)c(-c2ccc(COc3ccc4c(c3F)[C@]3(CCC4)C[C@H]3C(=O)O)cc2[C@@H]2CCCC2(C)C)c1
Emax [1]: 90% | EC50 [2]: 0.098 µM

COc1cc(-c2ccc(COc3ccc4c(c3F)[C@]3(CCC4)C[C@H]3C(=O)O)cc2[C@@H]2CCCC2(C)C)c(F)cn1
bioavailability [14]: 44% | bioavailability [3]: 61% | half-life [15]: 3.7 h | half-life [16]: 4.1 h | Vd [4]: 0.4 L/kg | Vd [5]: 0.8 L/kg | clearance [17]: 1.83 mL/min/kg | clearance [18]: 2.83 mL/min/kg | inhibition [6]: < 70% | inhibition [7]: < 70% | inhibition [8]: < 70% | inhibition [9]: < 70% | inhibition [10]: < 70% | inhibition [11]: < 70% | inhibition [12]: < 70% | Emax [1]: 90% | EC50 [2]: 0.105 µM

COc1ccc(F)c(-c2ccc(COc3ccc4c(c3)[C@@]3(CC4)C[C@H]3C(=O)O)cc2C2=CCCC2(C)C)c1
Emax [1]: 27% | EC50 [2]: 3.78 µM

COc1ccc(F)c(-c2ccc(COc3ccc4c(c3)[C@]3(CC4)C[C@H]3C(=O)O)cc2[C@@H]2CCCC2(C)C)c1
Activity [19]: Active | bioavailability [14]: 69% | bioavailability [3]: 28% | half-life [15]: 2.2 h | half-life [16]: 4.2 h | Vd [4]: 1.4 L/kg | Vd [5]: 0.7 L/kg | clearance [17]: 14 mL/min/kg | clearance [18]: 4.17 mL/min/kg | inhibition [6]: < 70% | inhibition [7]: < 70% | inhibition [8]: < 70% | inhibition [9]: < 70% | inhibition [10]: < 70% | inhibition [11]: < 70% | inhibition [12]: < 70% | Emax [1]: 101% | EC50 [2]: 0.081 µM | Activity (Mus musculus [20]): Active | Activity (Mus musculus [21]): 48% | Activity (Pancreatic islet [22]): Active | Activity (Pancreatic islet [23]): Active | fold change (FC) [24]: 2 | Activity [25]: Active | fold change (FC) [26]: 2 | Activity [27]: Active
